Source: article PMC9810691, “Structure-guided peptide engineering of a positive allosteric modulator targeting the outer pore of TRPV1 for long-lasting analgesia” (Nature Communications, 2023)
Several values for one entry are separate records, joined by “and”; a condition that tells them apart may be missing. Identical values can stand only once.

Assays:
TRPV1 K604E = experiment: Desensitization, TRPV1 mutant K604E; type: cell-based, murine; conditions: 10 μM cap alone or + 30 μM s-RhTx; single cells; listed as cap
Protocol: Site mutations of mTRPV1 were generated by Fast Mutagenesis Kit (Takara Bio). Primers used to generate point mutations are summarized in Supplementary Table 1. All mutations were confirmed by sequencing.
(§1) Patch-clamp recordings were carried out with a HEKA EPC10 amplifier controlled by PatchMaster software (HEKA). Patch pipettes were prepared from borosilicate glass and fire-polished to resistance of 3–8 MΩ by P-97 puller. Both bath solution and pipette solution contained 130 mM NaCl, 10 mM glucose, 0.2 mM EDTA, and 3 mM HEPES and were adjusted to pH 7.2–7.4 with NaOH for whole-cell recordings. For solution with pH lower than 6.5, HEPES was replaced by MES. Whole-cell recordings were performed at ±80 mV. Current was sampled at 10 kHz and filtered at 2.9 kHz. All recordings were performed at room temperature (25 °C). A gravity-driven system (RSC-200, Bio-Logic) with freely rotated perfusion tubes was used for the perfusion of peptide or ligands. Bath and ligand solution were delivered through separate tubes to minimize the mixing of solutions. Patch pipette holding cells was placed in front of the perfusion tube outlet for perfusion. […]
(§2) Data from whole-cell recordings were analyzed in Igor Pro version 5.05 (WaveMatrix). […]

TRPV1 [1] = molecular target: T1, TRPV1 (Mus musculus, UniProt Q704Y3); experiment: Capsaicin-induced desensitization of TRPV1 (WT) in calcium; type: cell-based, murine
T1 sequence (Q704Y3 whole entry): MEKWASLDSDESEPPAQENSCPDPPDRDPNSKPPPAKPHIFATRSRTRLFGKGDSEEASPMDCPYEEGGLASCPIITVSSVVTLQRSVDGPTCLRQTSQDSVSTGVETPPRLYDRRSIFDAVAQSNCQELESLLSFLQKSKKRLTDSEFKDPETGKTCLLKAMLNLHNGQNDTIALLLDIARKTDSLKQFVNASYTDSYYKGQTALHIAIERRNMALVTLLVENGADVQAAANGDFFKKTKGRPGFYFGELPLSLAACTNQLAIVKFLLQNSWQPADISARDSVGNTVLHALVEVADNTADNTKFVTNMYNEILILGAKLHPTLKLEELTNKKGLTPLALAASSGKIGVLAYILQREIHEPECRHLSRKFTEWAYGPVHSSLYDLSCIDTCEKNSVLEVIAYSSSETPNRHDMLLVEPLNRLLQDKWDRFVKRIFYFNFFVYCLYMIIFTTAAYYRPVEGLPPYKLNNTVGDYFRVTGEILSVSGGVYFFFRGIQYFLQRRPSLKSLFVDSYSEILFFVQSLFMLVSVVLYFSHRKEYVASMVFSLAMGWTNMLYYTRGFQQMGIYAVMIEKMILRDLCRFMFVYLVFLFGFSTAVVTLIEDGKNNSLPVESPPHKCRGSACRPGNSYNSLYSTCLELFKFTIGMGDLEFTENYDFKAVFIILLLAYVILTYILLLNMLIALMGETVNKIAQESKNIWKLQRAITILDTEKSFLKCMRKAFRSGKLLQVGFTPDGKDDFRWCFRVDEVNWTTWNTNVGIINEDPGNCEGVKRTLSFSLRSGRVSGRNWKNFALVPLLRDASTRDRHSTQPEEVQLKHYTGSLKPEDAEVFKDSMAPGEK
Protocol: (§3) HEK293T cells are cultured using DMEM medium contained 10% FBS in a cell incubator with 5% CO2 at 37 °C. Plasmids of murine TRPV1, TRPV2, TRPV3 and human TRPA1 are labeled with YFP or GFP as indicators for subsequent electrophysiological recordings. cDNA constructs of ion channels were transiently transfected with Lipofectamine 2000 (Invitrogen, Carlsbad, CA). And one or 2 days after transient transfection, electrophysiological recordings were performed.
as §1, with “solutions.” for “solutions. Patch pipette holding cells was placed in front of the perfusion tube outlet for perfusion.”
as §2

[2] = system: CFA-induced chronic inflammatory pain model mice; type: in vivo; conditions: capsaicin alone (with saline) or with linear or folded s-RhTx; words
Protocol: Mechanical allodynia was assessed via von Frey test as previously reported. Mice were placed in a plexiglass chamber upon the elevated metal mesh with 1 cm openings and allowed to acclimatize for 1 h. To determine mechanical thresholds of paw withdrawal, a series of von Frey filaments (0.02–2.56 g, Stoelting Co.) with increasing stiffness were used according to Dixon’s up-down method.

[3] = system: CFA-induced chronic inflammatory pain model mice; experiment: CFA-induced heat hyperalgesia (Hargreaves test); type: in vivo; conditions: capsaicin alone (with saline) or with linear or folded s-RhTx; words
Protocol: Thermal sensitivity was tested using a Hargreaves radiant heat apparatus (IITC Life Science) as previously reported[40],[41]. For heat hyperalgesia test in CFA model, the basal paw withdrawal latency was adjusted to 9 to 12 s, with a cutoff of 20 s to prevent tissue damage. For thermal sensitivity test, the basal paw withdrawal latency was adjusted to 4 to 6 s, with a cutoff of 10 s to prevent tissue damage. Withdrawal latency were averaged from three consecutive tests with a 5 min interval between measurements.

TRPV1 [4] = molecular target: T1, TRPV1; experiment: Calcium imaging, HEK293T cells expressing TRPV1; type: cell-based, murine
Protocol: as §3
Calcium imaging assay was performed as previously described[12],[20]. In brief, HEK293T cells expressing TRPV1 were incubated with 2 μM Fluo-4 AM (Thermo Fisher) in 2 mM calcium Ringer’s solution (140 mM NaCl, 5 mM KCl, 2 mM MgCl2, 2 mM CaCl2, 10 mM glucose, and 10 mM HEPES, pH 7.4). Fluorescence images of HEK293T cells were acquired with Nikon Eclipse Ti2 microscope with optiMOS charge-coupled device camera controlled by the Ocular Software (Molecular Devices). Fluo-4 AM was excited at 500/20-nm excitation, and fluorescence emission was detected at 535/30-nm. Fluorescence images were analyzed with Fiji software and Office Excel.

[5] = system: Trpv1+ nerve fibers, Trpv1-Ai32 / Trpv1-Ai14 mice; experiment: Trpv1+ intra-epidermal nerve fiber (IENF) quantification; type: in vivo; conditions: capsaicin 200 ng alone or with 2 μg peptide
Protocol: (§4) Adult C57 BL/6 mice (male, 8–10 weeks) and Trpv1^-/- mice (Jax Strain #:003770) were used for behavioral studies. To specifically label Trpv1-positive nerve fibers in skin tissues, Trpv1-Cre mice[36] (Jax Strain #:017769) were crossed with floxed reporter lines (Ai32, Jax Strain #:012569 or Ai14, Jax Strain #:007914) to get the transgenic reporter (Trpv1-Ai32 or Trpv1-Ai14) mice. Mice were group-housed at 22–24 °C and relative humidity of 30–70% under the 12 h light-dark cycle with access to standard food and water ad libitum. All the animal procedures were approved by the Institutional Animal Care & Use Committee (IACUC) of Zhejiang University.
After appropriate survival times, the mice were deeply anesthetized with isoflurane and perfused through the ascending aorta with PBS, followed by 4% PFA. After the perfusion, the hind paw glabrous skins and L4-L6 DRGs were removed and postfixed in the same fixative overnight. Skin sections (30 μm) and DRG sections (10 μm) were cut in a cryostat. Sections were blocked with 2% BSA for 2 h at room temperature and then incubated with Deep-red 640/660-conjugated Nissl (1:1000) at room temperature for 2 h. Sections were then incubated with DAPI (1:10,000, Vector Laboratories, catalog H-1200) for 5 min, followed by three times washing with PBS for 5 min each. The stained and mounted sections were examined with a Nikon fluorescence microscope, and images were captured with a charge-coupled device Spot camera. For quantification analysis, at least three sections from each mouse were selected, and at least three mice were analyzed in each group. To evaluate Trpv1-positive nerve fiber degeneration, transgenic reporter (Trpv1-Ai32 or Trpv1-Ai14) mice were used for the quantification of intra-epidermal nerve fiber (IENF) density. IENF density was calculated by counting the number of IENF crossing the epidermis-dermis boundary within unit length.

wildtype mice = type: in vivo
Protocol: as §4, with “University. […]” for “University.”
Spontaneous pain was measured by counting the time (s) mice spent on licking, lifting, or flinching the affected hind paws over a 10-min period after i.pl. injection.

## COc1cc(CNC(=O)CCCC/C=C/C(C)C)ccc1O [capsaicin, Capsaicin]
TRPV1 K604E
  desensitization time constant, K604E: 46.184 s and 35.399 s and 63.872 s and 58.758 s and 34.354 s and 64.15 s
TRPV1 [1]
  AUC of desensitization (mean): 72.39 ± 6.61 and 39.25 ± 5.01
  desensitization time constant tau (mean): 47.37 ± 6.14 s and 23.87 ± 3.97 s
[2]
  effect on CFA-induced mechanical allodynia: robust and prolonged mechanical allodynia
[3]
  effect on CFA-induced heat hyperalgesia: slow recovery from heat hyperalgesia
TRPV1 [4]
  calcium influx: cannot induce discernable calcium influx
[5]; individual mice, listed as Cap
  IENF number, with capsaicin: 11 and 9 and 12
[5]; words
  number of Trpv1+ IENF, with capsaicin: little effect on the number of Trpv1^+ IENF
Wildtype mice; capsaicin 200 ng alone or with 2 μg peptide, i.pl., words
  spontaneous pain behavior, with capsaicin: caused a mild spontaneous pain behavior
Wildtype mice; capsaicin 200 ng i.pl. alone (cap) or with 2 μg linear or folded s-RhTx, 20 μl, individual mice, listed as Cap
  total time of spontaneous pain within 10 min, with capsaicin: 63.91 s and 41.04 s and 20.17 s and 30.43 s and 88.51 s and 98.54 s and 102.03 s and 29.73 s and 145.77 s
